Assay: gradient 5% acetonitrile 3 min, to 50% in 2 min, to 85% in 15 min, held 3 min, 100 µL/min
Conditions: column: Zorbax Extend-C18 2.1 x 50 mm; eluents: water / acetonitrile, 0.1% formic acid
Procedure, shortened: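 Each retention time is based on an adduct peak selected computationally and verified by manual inspection. Measurements used HPLC–quadrupole time-of-flight mass spectrometry in positive and negative ionization mode on mixtures of ~100 pure standards. Chromatography ran on a Zorbax Extend-C18 column (2.1 × 50 mm, 1.8 μm) at 100 μL/min with water and acetonitrile, each containing 0.1% formic acid, and dead and dwell volumes of 40 μL and 900 μL.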

SMILES | RP-LC retention time [s]
CCC(=O)Nc1ccc(C2(C(=O)N3CCOCC3)CCCCC2)cc1 | 721
O=C(C1CC(=O)N(c2ccccc2)C1)N1CCSCC1 (stereo not given) | 828
NS(=O)(=O)c1ccc(CCNCc2ccc(-c3ccc(Cl)cc3)o2)cc1 | 810
Cc1nc(NC2=NCN(Cc3cccnc3)CN2)nc2c(C)cccc12 | 592
CCc1noc(NC(C)=O)c1-c1ccc(C)c(S(=O)(=O)Nc2ccc(Br)c(C)c2)c1 | 951
COc1ccc(-n2ccc(=O)c(-c3nc(-c4ccccc4)no3)n2)cc1 | 856
CCCC(=O)Nc1ccc2c(c1)CN(C(=O)Cc1ccc(F)cc1)C(C(=O)N(C)C)C2 (stereo not given) | 672
CC1=C(c2ccccc2)S(=O)(=O)N=C1N1CCCN(C(=O)NCc2ccco2)CC1 | 767
O=C(Nc1ccccn1)C1CCN(S(=O)(=O)c2ccc(-c3noc(C4CC4)n3)cc2)CC1 | 843
O=C(Nc1cnc(N2CCCC2)nc1)c1cccc(F)c1 | 716
Cc1cc2oc(C(=O)NCCc3nc(-c4ccccc4)no3)c(C)c2cc1C | 1210
COC(=O)c1ccc(NC(=O)NCCn2c(C(F)(F)F)nc3cccnc32)cc1 | 706
Cc1nn(CCCC(=O)NCc2ccc3c(c2)OCO3)c(=O)c2nn(-c3ccccc3)c(C)c12 | 704
O=C(Cc1cccc(Cl)c1)N1CC(n2cnnc2C2CC2)C1 | 655
Cc1onc(-c2ccc(Br)s2)c1C(=O)NCCCN1CCN(C)CC1 | 611
CCOC(=O)C1CCc2sc(NC(=O)CCn3cnc4ccccc4c3=O)nc21 (stereo not given) | 690
CCN1c2ccccc2C(=O)NC12CCN(C(=O)Nc1ccc3c(c1)OCCO3)CC2 | 737
CCSc1nnc(-c2nn(C)c3c2CN(S(=O)(=O)c2ccc(F)cc2)CC3)n1CC | 943
COCCN(C)C(=O)c1cn(C2CN(S(=O)(=O)c3cn(C)cn3)C2)nn1 | 585
CC(C)n1c(=O)c2ccccc2n(Cc2nc(-c3ccccc3Br)no2)c1=O | 1140
O=C(NCCn1nc(-c2ccc(F)cc2)ccc1=O)Nc1cccs1 | 692
Cc1ccc(-c2noc(-c3ccccc3S(=O)(=O)N3CCC(C)CC3)n2)cc1 | 1280
O=C(c1ccc(F)c(F)c1)N1CCN(S(=O)(=O)c2cc3c4c(c2)CCC(=O)N4CCC3)CC1 | 807

SMILES | RP-LC retention time [s]
O=C(Cc1cccs1)NCc1nnnn1-c1ccc(Cl)cc1 | 747
Cc1cccc(NC(=O)N2CCCC(C)(C(=O)NCc3ccc(F)cc3)C2)c1 (stereo not given) | 924
O=C(C1=CN(c2ccc(F)c(Cl)c2)c2ccccc2S1(=O)=O)N1CCOCC1 | 786
CCNC(=O)c1sc2nc(-c3cccc(F)c3)c(NCCOC)n2c1C | 800
CCN1CCCn2cc(S(=O)(=O)Nc3ccc(C)cc3)cc2C1=O | 1130
CN(C)S(=O)(=O)c1ccc(-c2nnc(C(=O)N3CCC4(CC3)OCCO4)o2)cc1 | 746
O=C(O)c1nnn(-c2cccc(Cl)c2)c1-c1ccncc1 | 657
CC(=O)N1CCN(c2nc(-c3ccncc3)nc3c2CCC3)CC1 | 576
Cn1cnc2c(C(=O)Nc3cccc(Cl)c3)nn(-c3ccccc3)c2c1=O | 945
CCOc1ccc(CNS(=O)(=O)c2cc(-c3c(C)noc3NC(C)=O)ccc2OC)cc1 | 785
Cc1c(-c2noc(-c3ccc(F)cc3)n2)nnn1Cc1ccccc1 | 1060
Cc1ccc(F)c2c(=O)c3c([nH]c12)CCN(CC(=O)Nc1cccc(F)c1)C3 | 620
O=C(Nc1cccn2c(C3CCC3)nnc12)c1cc2ccccc2[nH]1 | 818
O=C(Nc1nc(-c2ccccc2)cs1)Oc1ccccc1 | 1030
CCN(CC)CCNC(=O)C1CCCN(c2ncc(-c3cccc(F)c3)cn2)C1 (stereo not given) | 688
Cc1nnc(N2CCCC(C(=O)NCc3ccco3)C2)c2nn(-c3ccccc3)c(C)c12 (stereo not given) | 680
O=C(NC1CCSC1=O)c1ccccc1 (stereo not given) | 638
Nc1nc(-c2ccc(Cl)cc2)nn1C(=O)Cc1ccc(Cl)cc1 | 1170
CCc1cccc(N2C=C(C(=O)OC)S(=O)(=O)c3ccccc32)c1 | 930
CCN1C(=O)C2(CCN(S(=O)(=O)c3cn(C)cn3)CC2)c2ccccc21 | 724
O=C(NC1CCCCCC1)c1cccc(Cn2cncn2)c1 | 729
CCOC(=O)CNC(=O)N1CCCC1c1ccc(Cl)cc1 (stereo not given) | 795

From the METLIN SMRT retention time set (Domingo-Almenara et al. 2019)
